Earlier results in paper PMC11476552, “Synthesis and Preliminary Studies for In Vitro Biological Activity of Two New Water-Soluble Bis(thio)carbohydrazones and Their Copper(II) and Zinc(II) Complexes” (International Journal of Molecular Sciences, 2024).

Design: method as in PMID 29334758
Details: cited from earlier work

Structure (SMILES)	cytotoxic activity (in words)
S=C(N/N=C1\CCCc2cccnc21)N1CCN(c2ccccn2)CC1 [COTI-2]	nanomolar cytotoxic activity
CN(C(=S)NN=C(c1ccccn1)c1ccccn1)C1CCCCC1 [DpC, di-2-pyridylketone 4-cyclohexyl-4-methyl-3-thiosemicarbazone]	nanomolar cytotoxic activity
